For this assay, the target named is T1, hDGAT1 (Homo sapiens, UniProt O75907).
T1 construct: host or cells: Sf9 insect cells (baculovirus); microsomal preparation
T1 sequence (O75907 1-488): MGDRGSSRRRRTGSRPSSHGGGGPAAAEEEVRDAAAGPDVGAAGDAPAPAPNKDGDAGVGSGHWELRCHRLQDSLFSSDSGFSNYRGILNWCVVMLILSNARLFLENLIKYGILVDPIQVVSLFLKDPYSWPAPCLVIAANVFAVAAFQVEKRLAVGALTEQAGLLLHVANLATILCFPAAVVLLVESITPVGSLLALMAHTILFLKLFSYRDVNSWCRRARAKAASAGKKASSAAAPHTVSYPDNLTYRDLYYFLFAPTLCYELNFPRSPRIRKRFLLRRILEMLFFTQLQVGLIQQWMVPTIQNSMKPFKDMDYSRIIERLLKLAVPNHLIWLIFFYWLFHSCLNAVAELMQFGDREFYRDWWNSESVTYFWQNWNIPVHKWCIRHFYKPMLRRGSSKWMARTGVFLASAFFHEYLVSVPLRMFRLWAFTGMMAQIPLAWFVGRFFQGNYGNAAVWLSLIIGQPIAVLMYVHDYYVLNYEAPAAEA
The assay can be described thus: In-vitro DGAT1 assay (hDGAT1 microsomes from Sf9 cells, 14C oleoyl CoA, triglyceride formation). It is filed as biochemical. How it is done: In-vitro Protocol for DGAT1 Assay
Sf9 Culture and Treatment
Sf9 cells were grown in T25 flasks containing Graces's Insect media with 10% FBS with antibiotic (100 units/mL penicillin, 100 μg/mL streptomycin sulphate, 0.25 μg/mL Amptotericin B as Fungizone) grown in a 27° C. incubator:
hDGAT1ORF expression clone (RZPDo839C09146 in pDEST vector) was obtained from RZPD, Germany. hDGAT1 bacmid DNA was obtained by transformation of the hDGAT expression clone into DH10Bac E. coli competent cells. Approximately 1 μg of hDGAT1 bacmid DNA was infected into Sf9 cells with Cellfectin (Invitrogen) reagent. Following infection, Sf9 cells were incubated at 27° C. for 30 minutes. Five hours after infection, the media was replaced with growth media containing antibiotic (100 units/mL penicillin, 100 μg/mL streptomycin sulphate, 0.25 μg/mL Amptotericin B as Fungizone) and incubated at 27° C. for 72 hours. The supernatant containing the virus was centrifuged at 1500×g for 5 minutes, passed through 0.22 μm filter, and subsequently stored at 4° C. The virus was further amplified three more times by re-infection of Sf9 cells and the viral titer was determined by plaque assay.
Preparation of DGAT1 Microsomes from Sf9 Cells
Sf9 cells were seeded in spinner flasks on day 0 at a cell density of 1×10^6 and infected on day 1 with hDGAT1 baculovirus at a multiplicity of infection (MOI) of 5 and a cell density of 2×10^6. On day 3 (or 66-72 hours), cells were harvested and centrifuged at 2500×g for 10 minutes. Pellet was resuspended in lysis buffer (100 mM sucrose, 50 mM KCl, 40 mM KH2PO4, 30 mM EDTA, pH 7.2) and passed through 21-gauge needle approximately 10 times. The mixture was centrifuged at 12,000 rpm in a Sigma 12158-H rotor at 4° C. for 30 minutes. The supernatant was subjected to centrifugation at 35,000 rpm in a Beckman Ti-45 rotor at 4° C. for 1 hour. The resultant pellet containing the microsomes were resuspended overnight in 1 mL of lysis buffer and total protein concentration was estimated using Bradford Reagent. Microsomes were aliquoted and stored at −20° C.
Measurement of DGAT1 Activity
Frozen aliquots of hDGAT1 containing microsomes were thawed (5-10 mg/mL total protein) on ice and diluted to a working stock of 1 mg/mL with DGAT Assay Buffer (DAB). The DGAT reaction assay was performed by following the procedure described in U.S. Pat. No. 6,607,893 with some modifications that are described below.
Preparation of DGAT1 substrate mixture: 1 mL stock solution of DGAT1 substrate mixture contains (i) 5.6 μL of ^14C oleoyl CoA (16.8 nCi) and 35 μL 1,2-dioleoyl-sn-glycerol (409.5 μM) or (ii) 5.6 μL of ^14C oleoyl CoA (16.8 nCi) and 105 μL 1,2-dioleoyl-sn-glycerol (1228.5 μM) or (iii) 5.6 μL of ^14C oleoyl CoA (16.8 nCi) and 140 μL 1,2-dioleoyl-sn-glycerol (1638 μM).
1,2-sn-dioleoylglycerol substrate concentration in the 1 mL stock solution of DGAT1 substrate mixture was varied depending on the microsome concentration used in the assay reaction. 1,2-dioleoyl-sn-glycerol stock (19.5 mM) was prepared by dissolving 25 mg of 1,2-dioleoyl-sn-glycerol (Sigma, US) in 2060 μL of acetone. The assay was performed in duplicates in a reaction volume of 100 μL. The reaction volume consisted of: • (i) 27.5 μL of DGAT assay buffer (0.25M Sucrose, 1 mM EDTA (pH 8.0), 150 mM Tris-HCl, pH 7.4, 1.25 mg/mL, fatty acid free BSA), • (ii) 10 μL of compound, of present invention or standard (dissolved in DMSO and diluted to 10× with DAB and screened at 10 μM, 5 μM and 1 μM), • (iii) 60 μL DGAT1 substrate mixture taken from a 1 mL stock (16.8 nCi of ^14C oleoyl CoA and 409.5 μM or 1228.5 μM or 1638 μM of 1,2-dioleyl-sn-glycerol), • (iv) 2.5-10 μL of 1 mg/mL of microsomes (the amount of assay buffer was varied depending upon the concentration of microsome to make up the volume to 100 μL). Procedure:
The reaction was started by the addition of 2.5-10 μL of 1 mg/mL of microsomes (iv) to a mixture of (i), (ii) and (iii), vortexed and incubated at 37° C. for 10 minutes. […]

As usually defined, the inhibition is the relative decrease from the control value, in per cent. A high value points to strong suppression.

For the setting “At 10 μM”, `O=C(N[C@@H](CO)C(=O)O)c1cc(-c2ccc(Nc3nc4ccc(F)cc4s3)cc2)no1` [Example 10, (S)-2-({3-[4-(6-Fluoro-benzothiazol-2-ylamino)-phenyl]-isoxazole-5-carbonyl}-amino)-3-hydroxy-propionic acid] came in with an inhibition at 10 µM of 50 to 75%.

Turning to `COC(=O)[C@@H](NC(=NO)c1cc(-c2cccc(Nc3nc4ccc(F)cc4s3)c2)no1)C(C)C` [Example 26, (S)-2-({3-[3-(6-Fluoro-benzothiazol-2-ylamino)-phenyl]-N-hydroxy-isoxazole-5-carboximidoyl}-amino)-3-methyl-butyric acid methyl ester], the inhibition at 10 µM (At 10 μM) lay in the range of 0 to 50%.

On to `Cc1cc(NC(=O)Nc2ccc(F)cc2F)ccc1-c1cc(C(=O)NC(C(=O)O)C(C)C)on1` (centres unmarked) [Example 138, 2-(3-(4-(3-(2,4-difluorophenyl)ureido)-2-methylphenyl)isoxazole-5-carboxamido)-3-methylbutanoic acid], for which the inhibition at 10 µM (At 10 μM) lay in the range of 75 to 100%.

In the case of `COC(=O)[C@@H](NC(=O)c1cc(-c2ccc(NC(=O)Nc3ccccc3)cc2)no1)C(C)C` [Example 76, (S)-3-Methyl-2-({3-[4-(3-phenyl-ureido)-phenyl]-isoxazole-5-carbonyl}-amino)-butyric acid methyl ester], the inhibition at 10 µM (At 10 μM) was in the range of 50 to 75%.

Under “At 10 μM”, `CC(C)[C@H](NC(=O)c1cc(-c2ccc(NC(=O)Nc3ccc(F)cc3)cc2)no1)C(=O)O` [Example 85, (S)-2-[(3-{4-[3-(4-Fluoro-phenyl)-ureido]-phenyl}-isoxazole-5-carbonyl)-amino]-3-methyl-butyric acid] had an inhibition at 10 µM of 75 to 100%.

With `COC(=O)[C@@H](NC(=S)c1cc(-c2ccc(Nc3nc4ccc(F)cc4s3)cc2)no1)c1ccccc1` [Example 54, (S)-({3-[4-(6-Fluoro-benzothiazol-2-ylamino)-phenyl]-isoxazole-5-carbothioyl}-amino)-phenyl-acetic acid methyl ester], the inhibition at 10 µM (At 10 μM) lay in the range of 0 to 50%.

`C=C(NC(=O)c1cc(-c2ccc(NC(=O)Nc3ccccc3F)cc2)no1)C(=O)OC` [Example 301, Methyl 2-(3-(4-(3-(2-fluorophenyl)ureido)phenyl)isoxazole-5-carboxamido)acrylate] yielded an inhibition at 5 µM of 50 to 75%.

Take `CC(C)[C@H](NC(=O)c1cc(-c2ccc(NC(=O)Nc3ccc(OC(F)(F)F)cc3)cc2)no1)C(=O)O` [Example 187, (S)-3-methyl-2-(3-(4-(3-(4-(trifluoromethoxy)phenyl)ureido)phenyl)isoxazole-5-carboxamido)butanoic acid]: the inhibition at 1 µM lay within 75 to 100%.

For `COC(=O)[C@H](CC(C)C)NC(=O)c1cc(-c2ccc(Nc3nc4ccc(F)cc4s3)cc2)no1` [Example 46, (S)-2-({3-[4-(6-Fluoro-benzothiazol-2-ylamino)-phenyl]-isoxazole-5-carbonyl}-amino)-4-methyl-pentanoic acid methyl ester], for the setting “At 10 μM”, the inhibition at 10 µM was in the range of 0 to 50%.

The compound `CC(C)C(NC(=O)c1cc(-c2ccc(NC(=O)Nc3ccccc3-c3ccccc3)cc2)no1)C(=O)O` (centres unmarked) [Example 291, 2-(3-(4-(3-Biphenyl-2-ylureido)phenyl)isoxazole-5-carboxamido)-3-methylbutanoic acid] came in with an inhibition at 1 µM of 75 to 100%.

As to “(S)-({3-[4-(6-Fluoro-benzothiazol-2-ylamino)-phenyl]-isoxazole-5-carbothioyl}-amino)-phenyl-acetic acid [Example 55]”, where the note is “At 10 μM”, the “% inhibition of hDGAT1” value is reported as “++ (>50% Inhibition ≦75)”.

On to `COC(=O)[C@@H](NC(=O)c1onc(-c2ccc(NC(=O)Nc3ccccc3)cc2)c1-c1ccccc1)C(C)C` [Example 88, (S)-3-Methyl-2-({4-phenyl-3-[4-(3-phenyl-ureido)-phenyl]-isoxazole-5-carbonyl}-amino)-butyric acid methyl ester], for which, under “At 10 μM”, the inhibition at 10 µM fell in the range of 0 to 50%.

`COC[C@H](NC(=O)c1c(-c2ccc(Nc3nc4ccc(F)cc4s3)cc2)noc1-c1ccccc1)C(=O)OC` [Example 70, (S)-2-({3-[4-(6-Fluoro-benzothiazol-2-ylamino)-phenyl]-5-phenyl-isoxazole-4-carbonyl}-amino)-3-methoxy-propionic acid methyl ester]: the inhibition at 10 µM (At 10 μM) was 0 to 50%.

`CC(C)C(NC(=O)c1cc(-c2ccc(NC(=O)Nc3cccc(F)c3)cc2)no1)C(=O)O` (centres unmarked) [Example 152, 2-(3-(4-(3-(3-fluorophenyl)ureido)phenyl)isoxazole-5-carboxamido)-3-methylbutanoic acid] displayed an inhibition at 5 µM of 75 to 100%.

The compound `CC(C)[C@H](NC(=NO)c1cc(-c2cccc(Nc3nc4ccc(F)cc4s3)c2)no1)C(=O)O` [Example 27, (S)-2-({3-[3-(6-Fluoro-benzothiazol-2-ylamino)-phenyl]-N-hydroxy-isoxazole-5-carboximidoyl}-amino)-3-methyl-butyric acid] came in with an inhibition at 10 µM (At 10 μM) of 0 to 50%.

`CC(C)CC(NC(=O)c1cc(-c2ccc(NC(=O)Nc3ccc(F)cc3F)cc2)no1)C(=O)O` (centres unmarked) [Example 114, 2-(3-(4-(3-(2,4-Difluorophenyl)ureido)phenyl)isoxazole-5-carboxamido)-4-methylpentanoic acid] registered an inhibition at 10 µM (At 10 μM) of 75 to 100%.

For `CC(C)C(NC(=O)c1cc(-c2ccc(NC(=O)Nc3ccc(F)c(Cl)c3)cc2)no1)C(=O)O` (centres unmarked) [Example 162, 2-(3-(4-(3-(3-chloro-4-fluorophenyl)ureido)phenyl)isoxazole-5-carboxamido)-3-methylbutanoic acid], the inhibition at 1 µM is 75 to 100%.

`CC(C)[C@H](NC(=O)c1cc(-c2ccc(NC(=O)Nc3ccccc3F)cc2)no1)C(=O)OC(C)(C)C` [Example 300, (S)-tert-butyl 2-(3-(4-(3-(2-fluorophenyl)ureido)phenyl)isoxazole-5-carboxamido)-3-methylbutanoate] returned an inhibition at 5 µM of 50 to 75%.

Under “At 10 μM”, `O=C(N[C@H](C(=O)O)c1ccccc1)c1cc(-c2ccc(Nc3nc4ccc(F)cc4s3)cc2)no1` [Example 53, (S)-({3-[4-(6-Fluoro-benzothiazol-2-ylamino)-phenyl]-isoxazole-5-carbonyl}-amino)-phenyl-acetic acid] displayed an inhibition at 10 µM of 75 to 100%.

The compound `COC(=O)C1(NC(=O)c2cc(-c3ccc(Nc4nc5ccc(F)cc5s4)cc3)no2)CCCC1` [Example 62, 1-({3-[4-(6-fluoro-benzothiazol-2-ylamino)-phenyl]-isoxazole-5-carbonyl}-amino)-cyclopentanecarboxylic acid methyl ester] registered an inhibition at 10 µM (At 10 μM) of 0 to 50%.

For the origin of these results see patent publication US8835428B2, “Diacylglycerol acyltransferase inhibitors” (Piramal Enterprises Limited, priority 2008, dated 2014).
